Where “and” joins values, the source holds several entries; their conditions need not be identical. Identical values can stand only once. Like-named read-outs stand apart in the source and are kept apart here.
Experiments:
[1] = test system: NMDA receptor; test: Inhibition of NMDA/glycine-induced increases in intracellular calcium in cultured rat cerebellar granule cells (RCGC); assay type: cell-based; settings: NMDA/glycine-induced increases in intracellular calcium, cultured rat cerebellar granule cells; read-out: IC50 (μM) vs. NMDA
[2] = target: NMDA receptor-ionophore complex (site labeled by [3H]MK-801); test: Inhibition of [3H]MK-801 binding in rat cortical/hippocampal washed membrane preparations; settings: read-out: IC50 (μM) vs. [3H]MK-801
[3] = rat cortical/hippocampal washed membranes

Row | SMILES | IC50 [1] | IC50 [2, 3] [µM] | IC50 [2] [µM]
1 | NCCC(c1ccccc1)c1cccc(F)c1 (stereo not drawn) [Compound 32, 3-(3-fluorophenyl)-3-phenyl-1-propylamine] | 0.284 µM | 0.799 | –
2 | CCC(CCN)c1cccc(F)c1 (stereo not drawn) [Compound 35] | 6.2 µM | 25.1 | –
3 | CC(C)C(CCN)c1cccc(F)c1 (stereo not drawn) [Compound 37] | 0.944 µM | 11.1 | –
4 | CC(N)C(C)C(c1cccc(F)c1)c1cccc(F)c1 (stereo not drawn) [Compound 38, 3,3-bis(3-fluorophenyl)-1,2-dimethyl-1-propylamine] | 0.407 µM | 2.3 | –
5 | CCNC[C@H](C)C(c1cccc(F)c1)c1cccc(F)c1 [Compound 39] | 0.251 µM | 2.9 | –
6 | CC(C)(CN)C(c1cccc(F)c1)c1cccc(F)c1 [Compound 41, 3,3-bis(3-fluorophenyl)-2,2-dimethyl-1-propylamine] | 0.724 µM | 14 | –
7 | CC(N)CC(c1cccc(Cl)c1)c1cccc(Cl)c1 (stereo not drawn) [Compound 43] | 0.232 µM | 7.5 | –
8 | NCCC(c1cccc(F)c1)c1ccccc1F (stereo not drawn) [Compound 52, 3-(2-fluorophenyl)-3-(3-fluorophenyl)-1-propylamine] | 0.102 µM | 0.38 | –
9 | NCCC(c1ccccc1F)c1ccccc1F [Compound 53, 3,3-bis(2-fluorophenyl)-1-propylamine] | 0.217 µM | 4.2 | –
10 | CCC(CN)C(c1cccc(F)c1)c1cccc(F)c1 (stereo not drawn) [Compound 55, 3,3-bis(3-fluorophenyl)-2-ethyl-1-propylamine] | 0.035 µM | 0.153 | –
11 | Cc1c(F)cccc1C(CCN)c1cccc(F)c1 (stereo not drawn) [Compound 56, 3-(3-fluorophenyl)-3-(2-methyl-3-fluorophenyl)-1-propylamine] | 0.218 µM | 0.955 | –
12 | COc1ccc(F)cc1C(CCN)c1cccc(F)c1 (stereo not drawn) [Compound 61, 3-(3-fluorophenyl)-3-(3-fluoro-6-methoxyphenyl)-1-propylamine] | 0.134 µM | 0.324 | –
13 | COc1ccccc1C(CCN)c1ccccc1OC [Compound 62, 3,3-bis(2-methoxyphenyl)-1-propylamine] | 0.177 µM | 0.617 | –
14 | Cc1ccccc1C(CCN)c1ccccc1C [Compound 65, 3,3-bis(2-methylphenyl)-1-propylamine] | 0.167 µM | 2 | –
15 | CNC[C@H](C)C(c1cccc(F)c1)c1cccc(F)c1 [Compound 66] | 0.236 µM | 1.2 | –
16 | CNCCC(c1ccccc1)c1ccccc1 [Compound 67, N-methyl-3,3-diphenylpropylamine] | 11 µM | 2.9 | –
17 | CN[C@@H](C)CC(c1cccc(F)c1)c1cccc(F)c1 [Compound 69] | 0.224 µM | 0.366 | –
18 | NCCC(c1ccncc1)c1cccc(F)c1 (stereo not drawn) [Compound 79] | 12.6 µM | 10.2 | –
19 | CCC(CC)(CN)C(c1cccc(F)c1)c1cccc(F)c1 [Compound 80, 3,3-bis(3-fluorophenyl)-2,2-diethyl-1-propylamine] | 28 µM | 182 | –
20 | NCC=C(c1ccccc1)c1ccccc1 [Compound 81, 3,3-diphenyl-prop-2-ene-1-amine] | 1.4 µM | 6.1 | –
21 | CCC(CCN)(c1cccc(F)c1)c1cccc(F)c1 [Compound 82, 3,3-bis(3-fluorophenyl)-3-ethyl-1-propylamine] | 0.106 µM | 0.794 | –
22 | NCCC(c1cccc(F)c1)c1cccs1 (stereo not drawn) [Compound 83] | 0.342 µM | 0.794 | –
23 | OC1(C(c2cccc(F)c2)c2cccc(F)c2)CCNC1 (stereo not drawn) [Compound 84] | 7.9 µM | 23.4 | –
24 | C[C@H](C(c1ccccc1)c1ccccc1)[C@@H](C)N [Compound 86] | 1.2 µM | 6 | –

Row | SMILES | IC50 [1] | IC50 [2, 3] [µM] | IC50 [2] [µM]
25 | C[C@H](N)[C@H](C)C(c1ccccc1)c1ccccc1 [Compound 87] | 0.657 µM | 3 | –
26 | NCCOC(c1ccccc1)c1ccccc1 [Compound 88] | 2.5 µM | 10.6 | –
27 | N=C(N)CC(c1cccc(F)c1)c1cccc(F)c1 [Compound 89] | 0.24 µM | 1.2 | –
28 | NCCC(c1ccsc1)c1cccc(F)c1 (stereo not drawn) [Compound 90] | 0.27 µM | 1.4 | –
29 | CCC(NCCC(c1ccccc1)c1ccccc1)c1ccccc1 (stereo not drawn) [Compound 91] | 0.162 µM | 14.1 | –
30 | Fc1cccc(C(CCNCc2ccccc2)c2cccc(F)c2)c1 [Compound 92] | 1.3 µM | 20.2 | –
31 | CC(NCCC(c1cccc(F)c1)c1cccc(F)c1)c1ccccc1 (stereo not drawn) [Compound 93] | 0.486 µM | 26.9 | –
32 | CCC(NCCC(c1cccc(F)c1)c1cccc(F)c1)c1ccccc1 (stereo not drawn) [Compound 94] | 0.248 µM | 22.6 | –
33 | NCCC(c1cc(F)cc(F)c1)c1cc(F)cc(F)c1 [Compound 95, 3,3-bis(3,5,difluorophenyl)-1-propylamine] | 0.311 µM | 3 | –
34 | NCCC(c1cccc(F)c1)c1cc(F)cc(F)c1 (stereo not drawn) [Compound 96, 3-(3,5-difluorophenyl)-3-(3-fluorophenyl)-1-propylamine] | 0.187 µM | 1.1 | –
35 | COc1ccccc1C(CCN)c1ccccc1 (stereo not drawn) [Compound 97, 3-(2-methoxyphenyl)-3-phenyl-1-propylamine] | 0.41 µM | 2.6 | –
36 | NCC(c1cccc(F)c1)c1cccc(F)c1 [Compound 98, 2,2-bis(3-fluorophenyl)-1-ethylamine] | 7.9 µM | 52.5 | –
37 | NCC(c1ccc(F)cc1)c1ccc(F)cc1 [Compound 99] | > 100 µM | 105 | –
38 | NCCCC(c1cccc(F)c1)c1cccc(F)c1 [Compound 100, 4,4-bis(3-fluorophenyl)-1-butylamine] | 0.602 µM | 3.2 | –
39 | NCCC(c1cccc(O)c1)c1cccc(F)c1 (stereo not drawn) [Compound 101] | 0.912 µM | 2 | –
40 | Fc1cccc(C(c2cccc(F)c2)C2CCNC2)c1 (stereo not drawn) [Compound 102] | 1.01 µM | 3.3 | –
41 | NCCC(c1cccc(F)c1)c1ccccc1O (stereo not drawn) [Compound 103, 3-(2-hydroxyphenyl)-3-(3-fluorophenyl)-1-propylamine] | 0.38 µM | 0.661 | –
42 | NCCCC(c1ccc(F)cc1)c1ccc(F)cc1 [Compound 104] | 7.98 µM | > 10 | –
43 | CN(CCC(c1cccc(F)c1)c1cccc(F)c1)Cc1ccccc1 [Compound 105] | 1.03 µM | > 3 | –
44 | CNCC=C(c1cccc(F)c1)c1cccc(F)c1 [Compound 106] | 0.767 µM | 1.31 | –
45 | CNCCC(c1ccccc1)c1cccc(F)c1 (stereo not drawn) [Compound 108, N-methyl-3-(3-fluorophenyl)-3-phenyl-1-propylamine] | 1.06 µM | 0.942 | –
46 | Fc1cccc(C(=C2CCCNC2)c2cccc(F)c2)c1 [Compound 109] | 1.95 µM | 1.08 | –
47 | Fc1cccc(C(=C2CCNCC2)c2cccc(F)c2)c1 [Compound 110] | 42.7 µM | 13.3 | –
48 | Fc1cccc(C(c2cccc(F)c2)C2CCCNC2)c1 (stereo not drawn) [Compound 111] | 0.645 µM and 0.79 µM | 0.167 | –

Row | SMILES | IC50 [1] | IC50 [2, 3] [µM] | IC50 [2] [µM]
49 | Fc1cccc(C(c2cccc(F)c2)C2CCNCC2)c1 [Compound 112] | 28 µM and 28.9 µM | 21 | –
50 | COc1cccc(C(CCN)c2cccc(OC)c2)c1 [Compound 115, 3,3-bis(3-methoxyphenyl)-1-propylamine] | 1.4 µM and 1.9 µM | 1 | –
51 | NCCN(c1ccccc1)c1ccccc1 [Compound 117] | 19.6 µM | 6 | –
52 | NCCC(Oc1ccccc1)c1cccc(F)c1 (stereo not drawn) [Compound 118] | 0.409 µM | 0.24 | –
53 | COc1ccccc1OC(CCN)c1cccc(F)c1 (stereo not drawn) [Compound 121] | 0.656 µM | 0.67 | –
54 | CN(C)CCC(c1cccc(F)c1)c1cccc(F)c1 [Compound 123, N,N-dimethyl-3,3-bis(3-fluorophenyl)-1-propylamine] | 9.6 µM | > 3 | –
55 | NCCCc1ccccc1-c1cccc(F)c1 [Compound 124] | 3.5 µM | 14.3 | –
56 | NCCC(Cc1ccccc1)c1ccccc1 (stereo not drawn) [Compound 125] | 1.7 µM | 6.7 | –
57 | NCC(Cc1cccc(F)c1)Cc1cccc(F)c1 [Compound 126] | 0.398 µM | 6 | –
58 | NCCCc1ccccc1Cc1ccccc1 [Compound 127] | 1.2 µM | 17.5 | –
59 | NCCc1ccccc1Cc1ccccc1 [Compound 128] | 0.646 µM | – | 5.5
60 | NCCc1ccccc1Oc1ccccc1 [Compound 132] | 1.3 µM | 6.4 | –
61 | NCC(Cc1ccccc1)c1ccccc1 (stereo not drawn) [Compound 133] | 0.76 µM | 3 | –
62 | COc1cccc(C(CCN)c2cccc(Cl)c2)c1 (stereo not drawn) [Compound 136] | 0.139 µM | 0.706 | –
63 | NCC=C(c1cccc(F)c1)c1cccc(F)c1 [Compound 139, 3,3-bis(3-fluorophenyl)-prop-2-ene-1-amine] | 1.97 µM and 1.4 µM | 5.6 | –
64 | COc1cccc(/C(=C\CN)c2cccc(F)c2)c1 [Compound 141] | 4.26 µM | 8.97 | –
65 | CNCCC(c1cccc(F)c1)c1cccc(OC)c1 (stereo not drawn) [Compound 142] | 1.01 µM | 1.54 | –
66 | CNCCC(Oc1cccc(F)c1)c1cccc(F)c1 (stereo not drawn) [Compound 145] | 0.098 µM | 0.626 | –
67 | NCCC(Oc1ccccc1)c1ccccc1 (stereo not drawn) [Compound 146] | 0.829 µM | 0.372 | –
68 | NCCC(Oc1ccccc1)c1cccc(Cl)c1 (stereo not drawn) [Compound 148] | 0.549 µM | 0.373 | –
69 | NCCC(Oc1cccc(Cl)c1)c1cccc(Cl)c1 (stereo not drawn) [Compound 149] | 0.085 µM | 0.15 | –
70 | NCCC(Oc1cccc(F)c1)c1cccc(Cl)c1 (stereo not drawn) [Compound 150] | 0.195 µM | 0.351 | –
71 | CCCC(NCCC(c1ccccc1)c1ccccc1)c1ccccc1 (stereo not drawn) [Compound 157] | 0.142 µM | 23.2 | –
72 | CC(C)C(NCCC(c1ccccc1)c1ccccc1)c1ccccc1 (stereo not drawn) [Compound 158] | 0.351 µM | 39.6 | –

— patent US6750244B2, “Compounds active at a novel site on receptor-operated calcium channels useful for treatment of neurological disorders and diseases” (NPS Pharmaceuticals, Inc., priority 1993, dated 2004)
